{
  "source": "patent US6060518A",
  "about": "“Polymer compositions for chemotherapy and methods of treatment using the same” (Supratek Pharma Inc., priority 1996, dated 2000)",
  "key": {"[1]": {"system": "Lewis Lung Carcinoma (3LL) Cell Line, subline H-59", "experiment": "XTT cytotoxicity assay, Lewis Lung Carcinoma 3LL (H-59) cells", "type": "cell-based", "settings": "Mus musculus, read-out: IC50, doxorubicin (concentration producing 50% inhibition of cell growth)", "description": "A highly metastatic clonal Lewis Lung Carcinoma cell subline H-59 (3LL) was used to evaluate cytotoxic activity of Prep. C and compare it with that of doxorubicin. To this end, the cells were suspended in RPMI 1640 medium supplemented with 10% fetal calf serum, and plated at 2000-3000 cells/well into 96-well microtiter plates. Prep. C in which doxorubicin final concentrations varied from 1 to 10,000 ng/ml was added to the cells and incubated for 2 hours at 37° C. and 5% CO2. The cells were then washed three times with RPMI 1640 and cultured for 4 days. Drug cytotoxicity was determined by a standard XTT assay. To this end, sterile 1 mg/ml XTT solution in RPMI 1640 containing 5 μl/ml of 1.54 μg/ml phenazine methasulfate solution in sterile PBS was added to the cells (100 μl/well) and incubated for 4 to 16 hours at 37° C. and 5% CO2. The absorbance at λ420 was determined using a microplate reader. All the experiments were carried out in triplicate. SEM values were less than 10% (P<0.05). the concentrations of free doxorubicin and doxorubicin in Prep."}, "[2]": {"system": "Lewis Lung Carcinoma (3LL-H59)", "experiment": "Metastasis development after i.v. inoculation of 3LL-H59 cells", "type": "in vivo, Female C57BL/6 mice", "settings": "Dox 5.0 mg/kg, L61 0.25% w/v, PEG8000 1% w/v, Days 1, 4, 7, 10 animals per group", "quoted_text": "A highly metastatic clonal subline H59 of Lewis Lung, Carcinoma (3LL-H59) was used as a model. […] These cells were cultured in D-MEM supplemented with 10% FCS at 37° C. in a humidified atmosphere with 5% CO2. After 7 to 10 passes in culture, the cells in their logarithmic growth phase were harvested with trypsin for the following experiments.\nAnimals. Female C57BL/6 mice were obtained from Charles River Canada Inc. (St. Constant, Quebec, Canada) and used at 6 to 7 weeks of age. Animals were grouped five per cage with air filter cover under a light (12-h light/dark cycle, light on at 06h00) and temperature-controlled environment (22 ±1° C.). All manipulations of animals were performed under a sterilized laminar. The animals had ad libitum access to Purina Mouse Chow (Pro Lab PMH 4018, Trademark of Agway, Syracuse, N.Y.) and water. […]\nAt Day 16 after tumor inoculation, the animals were sacrificed and subjected to routine metastasis inspection. All organs were routinely screened, although metastatic formations were normally detected only in the lung. […] The data are expressed as means±SEM for the number of metastatic sites and as the percentage of the animals having metastasis for the incidence of metastasis development. Statistical significance was calculated according to the multiple range test of Duncan-Kramer. […]"}},
  "data": [
    {"smiles": "COc1cccc2c1C(=O)c1c(O)c3c(c(O)c1C2=O)C[C@@](O)(C(=O)CO)C[C@@H]3O[C@H]1C[C@H](N)[C@H](O)[C@H](C)O1", "note": "[Doxorubicin, doxorubicin]", "values": [
      {"measurement": "IC50", "setting": "[1]", "result": 0.11, "unit": "µg/mL"},
      {"measurement": "Incidence (animals having metastasis)", "setting": "[2]; Day 16", "result": 100, "unit": "%"},
      {"measurement": "Number of metast. sites on lung periphery ±SEM", "setting": "[2]; counted Day 16", "result": "8.90 ± 2.56"}
    ]}
  ]
}
